# Source: patent US20200255436A1, “CORTICOTROPIN RELEASING FACTOR RECEPTOR ANTAGONISTS” (Spruce Biosciences, Inc., priority 2019, published 2020)
# Like-named read-outs stand apart in the source and are kept apart here.
# Assays:
# [1] = Study 1: single escalating oral dose pharmacokinetics, fed and fasted; assay type: in vivo, human; settings: for Cmax / Tmax / AUC(0-inf) / AUC(0-t) / Vd/F / half-life: human, plasma, po; for AUC(0-t): read-out: AUC0-tlast
# Experimental: Study 1 was the first-in-human study that investigated the safety, tolerability, and PK of single-escalating doses of Compound 1, given orally, to healthy adult subjects. […] The data from this study were used for the selection of doses for Study 2.
# In Study 1, Compound 1 was administered to healthy adult subjects as a single PO dose of 2, 10, 50, 150, 400, or 800 mg in the fed state and 150 mg in the fasted state. Absorption occurred moderately late, achieving peak Cmax between 4 to 6 hours following dosing in the fed state.
# When Compound 1 was given in the fed state, median time to reach maximum plasma concentration (Tmax) occurred between 4 and 6 hours.
# As part of this single-dose escalation study, a food effect PK investigation was performed to examine Compound 1 exposures in both the fed and fasted states at the 150-mg dose level. A total of 6 subjects were administered 150 mg Compound 1 in each of these 2 dosing groups. Of these 6 subjects, 4 subjects received Compound 1 at the same dose in both fed and fasted states. […] Table 2 provides a summary of the PK parameters at the 150-mg dose level under both fed and fasted state conditions.
# PK parameters AUC0-∞ and Cmax were analyzed separately for dose proportionality for Compound 1 from 50 to 800 mg when administered in the fed state. […] Dose proportionality across administered doses in the fed state could not be concluded on the basis of AUC0-∞ or Cmax.
# CRF1 receptor = target: T1, CRF1 receptor (Homo sapiens, UniProt P34998); experiment: Phase 2 study in adults with classic CAH: ACTH, 17-OHP, androstenedione response; assay type: in vivo; settings: patients with classic CAH
# T1 construct: from tissue; host or cells: Human patients in vivo (anterior pituitary corticotrophs)
# T1 sequence (P34998 24-415): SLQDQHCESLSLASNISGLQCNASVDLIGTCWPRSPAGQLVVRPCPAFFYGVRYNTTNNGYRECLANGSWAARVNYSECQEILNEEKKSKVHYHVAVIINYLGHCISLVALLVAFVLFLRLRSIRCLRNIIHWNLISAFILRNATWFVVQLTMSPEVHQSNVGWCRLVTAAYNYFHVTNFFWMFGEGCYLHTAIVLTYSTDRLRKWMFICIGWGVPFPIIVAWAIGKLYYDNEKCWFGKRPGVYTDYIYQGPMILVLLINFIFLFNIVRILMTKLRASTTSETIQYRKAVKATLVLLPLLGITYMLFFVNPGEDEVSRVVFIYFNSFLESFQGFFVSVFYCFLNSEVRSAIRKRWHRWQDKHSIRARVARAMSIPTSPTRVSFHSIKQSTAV
# Description: Cohort A of the Phase 2 Study includes a 6-week, multiple-dose, dose escalation study of Compound 1 for the treatment of adults with classic CAH. After screening, eligible patients will be enrolled into a 6-week treatment period followed by a 4-week washout/safety follow-up period.
# This cohort will be conducted in approximately 9 patients, who will receive Compound 1 daily for up to 6 weeks. Compound 1 will be administered as an oral daily dose. Patients will undergo titration of Compound 1 through three escalating dosage strengths at 2-week intervals. Patients will have overnight PK/PD assessments performed at baseline, which include an pre-dose overnight assessment and a post-dose overnight assessment for PK/PD following administration of the first dose. At the end of each 2-week dosing period, patients will return for single overnight visits for steady-state PK/PD assessments. A follow-up outpatient visit will occur 30 days after their last dose. Upon completion of the initial cohort (Cohort A), the study will proceed to a multiple ascending dose (MAD) design with up to 3 sequential cohorts (Cohorts B, C, and D) to further evaluate the safety, PK, and PD of various SPROO1 dosing regimens and to identify an optimal dose regimen. Each cohort will undergo a 2-week run-in period, a 2-week treatment period, and a 30-day washout and safety follow-up period. During the run-in period, which will occur during screening, subjects will document in a paper diary each dose of glucocorticoid medication taken, the time of each meal, and the time they went to bed and woke up each day, to ensure compliance with background glucocorticoid regimens and the stability of their daily routine.
# • 1. To evaluate the safety of Compound 1 in subjects with CAH. • 2. To assess the efficacy of Compound 1 in subjects with classic CAH as measured by percent and absolute change in 17-OHP compared to baseline.
# • 3. To explore the dose(s) of Compound 1 that cause pharmacodynamics changes in plasma concentrations of ACTH, androstenedione, and testosterone, as measured by the absolute and percent change from baseline by dose. • 4. To determine pharmacokinetics of Compound 1 in subjects with CAH. • 5. To explore potential relationships between pharmacodynamics and pharmacokinetics.
# [2] = 50 mg, 50 mg single oral dose, fed, geometric mean
# [3] = 150 mg, 150 mg single oral dose, fasted, geometric mean
# [4] = 150 mg, 150 mg single oral dose, fed, geometric mean
# [5] = 400 mg, 400 mg single oral dose, fed, geometric mean
# [6] = 800 mg, 800 mg single oral dose, fed, geometric mean
smiles,measurement,setting,value
"CCC(CC)c1cc(C)nc2c(-c3sc(N4CCOCC4)nc3Cl)c(C)nn12 [Compound 1, 4-(4-chloro-5-(2,5-dimethyl-7-(pentan-3-yl)pyrazolo[1,5-a]pyrimidin-3-yl)thiazol-2-yl)morpholine]",CL/F,"[1]; 50 mg single oral dose, fed, geometric mean",302 L/h
same,CL/F,"[1]; 150 mg single oral dose, fasted, geometric mean",454 L/h
same,CL/F,"[1]; 150 mg single oral dose, fed, geometric mean",157 L/h
same,CL/F,"[1]; 400 mg single oral dose, fed, geometric mean",155 L/h
same,CL/F,"[1]; 800 mg single oral dose, fed, geometric mean",165 L/h
same,AUC0-∞ increase for every doubling of dose relative to dose proportionality,"[1]; 50 to 800 mg, fed state",1.74 times
same,"mean AUC0-∞, fed state relative to fasted state",[1]; 150-mg single dose,approximately 3 fold
same,"mean Cmax, fed state relative to fasted state",[1]; 150-mg single dose,~11 fold
same,Cmax,"[1]; 2 mg, 2 mg single oral dose, fed, geometric mean",0.867 ng/mL
same,Tmax,"[1]; 2 mg, 2 mg single oral dose, fed, median, read-out: Tmax",6 h
same,Cmax,"[1]; 10 mg, 10 mg single oral dose, fed, geometric mean",3.01 ng/mL
same,Tmax,"[1]; 10 mg, 10 mg single oral dose, fed, median, read-out: Tmax",4 h
same,AUC(0-inf),[1]; [2],165 ng·h/mL
same,Cmax,[1]; [2],19.5 ng/mL
same,AUC(0-t),[1]; [2],152 ng·h/mL
same,Vd/F,"[1]; 50 mg, 50 mg single oral dose, fed, geometric mean, read-out: VSS/F",8080 L
same,Vd/F,"[1]; 50 mg, 50 mg single oral dose, fed, geometric mean, read-out: VZ/F",13500 L
same,half-life,"[1]; 50 mg, 50 mg single oral dose, fed, geometric mean, read-out: t1/2 (converted)",31 h
same,Tmax,"[1]; 50 mg, 50 mg single oral dose, fed, median, read-out: Tmax",4 h
same,AUC(0-inf),[1]; [3],331 ng·h/mL
same,Cmax,[1]; [3],8.22 ng/mL
same,AUC(0-t),[1]; [3],288 ng·h/mL
same,Vd/F,"[1]; 150 mg, 150 mg single oral dose, fasted, geometric mean, read-out: VSS/F",25200 L
same,Vd/F,"[1]; 150 mg, 150 mg single oral dose, fasted, geometric mean, read-out: VZ/F",25100 L
same,half-life,"[1]; 150 mg, 150 mg single oral dose, fasted, geometric mean, read-out: t1/2 (converted)",38.4 h
same,Tmax,"[1]; 150 mg, 150 mg single oral dose, fasted, median, read-out: Tmax",10.1 h
same,AUC(0-inf),[1]; [4],956 ng·h/mL
same,Cmax,[1]; [4],93.4 ng/mL
same,AUC(0-t),[1]; [4],891 ng·h/mL
same,Vd/F,"[1]; 150 mg, 150 mg single oral dose, fed, geometric mean, read-out: VSS/F",4600 L
same,Vd/F,"[1]; 150 mg, 150 mg single oral dose, fed, geometric mean, read-out: VZ/F",6620 L
same,half-life,"[1]; 150 mg, 150 mg single oral dose, fed, geometric mean, read-out: t1/2 (converted)",29.2 h
same,Tmax,"[1]; 150 mg, 150 mg single oral dose, fed, median, read-out: Tmax",4 h
same,AUC(0-inf),[1]; [5],2580 ng·h/mL
same,Cmax,[1]; [5],207 ng/mL
same,AUC(0-t),[1]; [5],2300 ng·h/mL
same,Vd/F,"[1]; 400 mg, 400 mg single oral dose, fed, geometric mean, read-out: VSS/F",6580 L
same,Vd/F,"[1]; 400 mg, 400 mg single oral dose, fed, geometric mean, read-out: VZ/F",9890 L
same,half-life,"[1]; 400 mg, 400 mg single oral dose, fed, geometric mean, read-out: t1/2 (converted)",44.2 h
same,Tmax,"[1]; 400 mg, 400 mg single oral dose, fed, median, read-out: Tmax",4 h
same,AUC(0-inf),[1]; [6],4850 ng·h/mL
same,Cmax,[1]; [6],382 ng/mL
same,AUC(0-t),[1]; [6],4390 ng·h/mL
same,Vd/F,"[1]; 800 mg, 800 mg single oral dose, fed, geometric mean, read-out: VSS/F",6820 L
same,Vd/F,"[1]; 800 mg, 800 mg single oral dose, fed, geometric mean, read-out: VZ/F",9970 L
same,half-life,"[1]; 800 mg, 800 mg single oral dose, fed, geometric mean, read-out: t1/2 (converted)",41.9 h
same,Tmax,"[1]; 800 mg, 800 mg single oral dose, fed, median, read-out: Tmax",6 h
same,half-life,"[1]; after a single PO dose (fed and fasted state), across dose levels, read-out: Mean half-life (t1/2)",31 to 44 h
same,Tmax,"[1]; single oral doses 2-800 mg, fed state, read-out: median time to reach maximum plasma concentration (Tmax)",4 to 6 h
same,effect on morning rise in A4 (androstenedione),CRF1 receptor,attenuates morning rise in A4
same,subjects with 17-OHP within the guideline range (1200 ng/dL) after treatment,CRF1 receptor,50%
same,subjects with ACTH in the normal range after treatment,CRF1 receptor,40%
same,subjects with Androstenedione within normal reference range after treatment,CRF1 receptor,50%
same,subjects with more than 25% reduction in 17-OHP,CRF1 receptor,50%
same,subjects with more than 25% reduction in ACTH,CRF1 receptor,70%
same,subjects with more than 25% reduction in Androstenedione,CRF1 receptor,60%
same,subjects with reduction in 17-OHP,CRF1 receptor,80%
same,subjects with reduction in ACTH,CRF1 receptor,80%
same,subjects with reduction in Androstenedione,CRF1 receptor; at various doses,100%
